# Experimental data as given in PMC9495854, “Novel Phenothiazine/Donepezil-like Hybrids Endowed with Antioxidant Activity for a Multi-Target Approach to the Therapy of Alzheimer’s Disease” (Antioxidants, 2022).
# How the values were obtained:
# Aβ1-40 aggregation = biological target: T1, Aβ1-40 aggregation (Homo sapiens, UniProt P05067); experiment: Inhibition of Aβ40 aggregation, ThT fluorescence; type: biochemical; settings: inhibitor 10 µM, Aβ40 30 µM, PBS pH 7.4, 2% HFIP, 2 h 25 °C; mean ± SEM
# T1 construct: purchased EZBiolab
# Method: ThT fluorescence in the presence of Aβ was measured for each compound according a previously described procedure. The samples were co-incubated and mixed in 96-well black, non-binding microplates (Greiner Bio-One GmbH, Frickenhausen, Germany), incubating Aβ40 (EZBiolab, Carmel, IN, USA) at a final concentration of 30 µM with each inhibitors at a final concentration of 10 µM in PBS (pH 7.4) containing 2% 1,1,1,3,3,3-hexafluoro-2-propanol (HFIP). After 2 h at 25 °C, a 25 µM ThT solution was added and fluorescence was determined using the multi-plate reader Tecan Infinite M1000 Pro (Tecan, Cernusco S.N., Italy). The results are reported as mean of three independent experiments ± SEM [13].
# [1] = DPPH radical scavenging assay; settings: DPPH 100 µM in methanol, 30 min
# Method: A previously reported method (Blois) with some modifications (Mishra, Ojha, & Chaudhury, 2012) was used to carry out the DPPH assay in 96-well microtiter plates. Each tested compound was dissolved in methanol, after which a freshly prepared solution of DPPH in methanol (100 µM final concentration) was added. Following vigorous stirring, each mixture was left in the dark for 30 min at room temperature, after which absorbance values for each well were read at 520 nm using a spectrophotometric plate reader (VICTOR^3 V multilabel plate reader, PerkinElmer). Antioxidant activity was determined as RSA% (radical scavenging activity). The value was calculated using following equation: RSA% = 100 × [(Ao − Ai)/Ao], where Ao and Ai represent DPPH absorbance in absence or in presence of antioxidant, respectively. Antiradical curves for calculating the EC50 values were obtained by testing each compound at several concentrations. Values of all parameters are expressed as mean ± SEM of at least three independent measurements in triplicate.
# FAAH Human recombinant = biological target: T2, FAAH Human recombinant (Homo sapiens, UniProt O00519); experiment: FAAH inhibition, fluorometric assay; type: biochemical; settings: mean ± SEM; read-out: hFAAH (IC50)
# T2 construct: purchased Cayman Chemical
# T2 sequence (O00519 1-579): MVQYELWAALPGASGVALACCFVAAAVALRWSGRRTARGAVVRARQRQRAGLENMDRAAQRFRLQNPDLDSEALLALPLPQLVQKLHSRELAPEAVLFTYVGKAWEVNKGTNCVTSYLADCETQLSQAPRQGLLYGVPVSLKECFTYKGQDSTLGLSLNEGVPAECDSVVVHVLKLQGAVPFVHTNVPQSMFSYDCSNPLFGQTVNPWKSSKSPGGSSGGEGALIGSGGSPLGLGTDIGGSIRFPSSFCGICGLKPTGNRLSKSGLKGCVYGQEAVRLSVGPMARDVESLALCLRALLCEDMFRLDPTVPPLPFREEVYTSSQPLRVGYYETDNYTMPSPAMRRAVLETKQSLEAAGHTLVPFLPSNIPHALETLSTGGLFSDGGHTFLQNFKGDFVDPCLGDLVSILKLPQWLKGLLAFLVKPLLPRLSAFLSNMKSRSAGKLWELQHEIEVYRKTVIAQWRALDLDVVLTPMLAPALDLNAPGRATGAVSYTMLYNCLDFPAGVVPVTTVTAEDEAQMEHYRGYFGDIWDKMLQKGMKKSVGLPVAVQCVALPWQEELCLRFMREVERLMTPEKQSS
# Method: The fatty acid amide hydrolase inhibition was measured for the final compounds using 96-well black flat-bottom microtiter NBS plates (COSTAR flat black). The total volume was 150 µL: the single hybrid was pre-incubated at different concentrations with the enzyme (FAAH Human recombinant, Cayman Chemical, Ann Arbor, MI, USA) in the specific fluorometric assay buffer (tris-HCl 125 mM, Na2EDTA · 2H2O 1 mM, pH = 9.0) for ten minutes at RT, using an orbital shaker. A 50 μL solution of the substrate (7-amino-4-methyl-2H-1-benzopyran-2-one-5Z,8Z,11Z,14Z-eicosatetraen-amide, at a final concentration of 5 µM) was then added. The plates were then incubated for 1 h at 37 °C in a Tecan Infinite M1000 Pro (Tecan, Cernusco S.N., Italy), reading fluorescence values from each well every 30s (λex = 340 nm, λem = 450 nm). The inhibitor activity was expressed as relative fluorescence units (RFU), using the values obtained from control wells lacking the inhibitor and blank wells lacking both inhibitor and enzyme to calculate percent inhibition values for each well. IC50 values are expressed as mean ± SEM of at least two independent measurements performed in triplicate.
# SH-SY5Y cells = experiment: DCFH-DA cell-based antioxidant assay (H2O2-induced oxidation), SH-SY5Y; settings: Homo sapiens, SHSY-5Y, 1 h compound, 100 μM H2O2, read-out: DCFDH-DA IC50 ± SEM SHSY-5Y
# Method: HepG2 cells were cultured in Eagle’s Minimum Essential Medium (MEM, Euroclone S.p.A., Pero, MI, Italy), supplemented with 10% Fetal Bovine Serum (FBS, Euroclone S.p.A., Pero, MI, Italy), 1% L-glutamine (Euroclone S.p.A., Pero, MI, Italy), 100 U/mL penicillin/streptomycin (Euroclone S.p.A., Pero, MI, Italy), 1% Non-Essential Amino Acids (NEAA, Euroclone S.p.A., Pero, MI, Italy). SH-SY5Y cells were grown in a 1:1 mixture of Dulbecco’s modified Eagle’s medium (DMEM)—high glucose (Euroclone S.p.A., Pero, MI, Italy) and Ham’s F12 Medium (Euroclone S.p.A., Pero, MI, Italy) supplemented with 10% FBS, 1% L-glutamine and 100 U/mL penicillin/streptomycin. For cell assays, cells were trypsinized using Trypsin-EDTA 1X in PBS (Euroclone S.p.A., Pero, MI, Italy).
# According to a slightly modified procedure already reported in the literature, the generation of ROS was determined using an oxidation-sensitive fluorescent probe, 2′,7′-dichlorodihydrofluorescein diacetate (DCFH-DA, D6665; Sigma-Aldrich, St. Louis, MO, USA). Briefly, viable cells were seeded in a black 96-well cell culture plate (Costar, Sigma-Aldrich, St. Louis, MO, USA) and after 24 h were incubated with different concentrations (0.1–100 µM) of each compound for 1 h at 37 °C in 5% CO2. […] After washing using PBS, 100 μM H2O2 in medium without serum was added to each well and the cells were incubated for an additional 30 min. The formation of fluorescent dichlorofluorescein (DCF) due to oxidation of DCFH in the presence of ROS, was read at 530 nm using a microplate reader Tecan Infinite M1000 Pro (Tecan, Cernusco S.N., Italy) and DMSO medium was used for control cells. The results are expressed as mean ± SEM of at least three independent measurements in triplicate.
# T1 sequence (P05067 672-711 limits assumed): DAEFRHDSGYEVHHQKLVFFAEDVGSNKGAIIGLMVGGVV
smiles,measurement,setting,value
COc1cc2c(cc1OC)C(=O)C(CC1CCN(Cc3ccccc3)CC1)C2 (centres unmarked) [Donepezil],Aβ1-40 Aggregation (I% at 10 µM),Aβ1-40 aggregation,14% ± 7
"O=C(O)c1cc(O)c(O)c(O)c1 [Gallic acid, reference compound]",EC50 (μmol/μmol of DPPH ± SEM),[1],0.059 ± 0.003 μmol/μmol of DPPH
same,EC50 (μmol/μmol of DPPH ± SEM),[1]; listed as gallic acid,0.059 μmol/μmol of DPPH
"O=C(Oc1ccc([N+](=O)[O-])cc1)N1CCN(Cc2cccc(Oc3ccccc3)c2)CC1 [JZL195, reference compound]",IC50,FAAH Human recombinant,19 ± 3 nM
"O=c1c(O)c(-c2ccc(O)c(O)c2)oc2cc(O)cc(O)c12 [Quercetin, reference compound]",IC50,SH-SY5Y cells,5610 ± 400 nM
